# From US20250281393A1, “BODY CAVITY GEL” (CS MEDICA A/S, priority 2021, published 2025)
# Read-outs that look alike come from different tables or passages of the source.
# Tested on: pathogens, such as virus, e.g. cold and/or flu
# Details: in vivo
smiles,measurement,setting,value
"C=C(C)[C@@H]1CCC(C)=C[C@H]1c1c(O)cc(CCCCC)cc1O [type A CBD, Cannabidiol]","Activity (potency) in protection against pathogens, compared with type B CBD",,significantly more active
same,"Activity (potency) in protection against pathogens, compared with type B CBD",listed as crystal structure A,significantly more potent
